Tests used:
[1] = test system: Antibodies prepared from BSA conjugate according to Example 6; assay: Cross-reactivity in homogeneous enzyme immunoassay for propranolol (G6PDH conjugate, change in OD at 340nm); type: binding; conditions: 100ng/ml propranolol standard
Description: (§1) Antibodies were prepared employing the conjugates of Examples 4 and 6 in accordance with known procedures. The bleeds were harvested and the antibodies isolated according to known techniques.
(§2) The following is the assay procedure employed for the determination of the presence of propranolol.
(§3) In carrying out the propranolol assay, a number of reagent solutions are prepared:
(§4) • 0.055M Tris-HCl • 0.05% Sodium Azide • 0.005% Thimerosal • pH8.1 at room temperature • Assay Buffer • Basic Buffer • 0.5% NaCl • 0.01% Triton X-100 • pH8.1 at room temperature • Substrate/Antibody Diluent • Basic Buffer • 1.0% RSA (Rabbit Serum Albumin) • 0.04M NAD • 0.066M glucose-6-phosphate • pH5.0 at room temperature • Enzyme Diluent • Basic Buffer • 1.0% RSA • 0.9% NaCl • pH 8.1 at room temperature • Antibody-Substrate Reagent A
(§5) Antibody Substrate is used to dilute gamma globulin isolated as above so that ca 70% of the G6PDH conjugate activity is inhibited in the assay solution.
(§6) The enzyme conjugate (e.g., Example 7) is diluted with enzyme diluent to attain the desired maximum rate. This is measured by aspirating into a spectrometer and taking the change in readings at 340nm over a 30 second period after a 15 second delay.
(§7) In carrying out the assay, the assay solution is prepared by combining the following: 50µl of the sample to be assayed, 50 µl of Reagent A, and 50 µl of Reagent B with 750 µl of assay buffer. The mixture is aspirated into a spectrometer and the A OD read at 340nm. The.concentration of propranolol in the sample is read from a standard curve prepared by using standardized solutions and taking readings.
(§8) The drugs listed below were used in preliminary testing for cross-reactivity with propranolol using the assay procedure described above: 4-hydroxypropranolol (4POH), N-desisopropyl-propranolol (DIPP), propranolol glycol (PG), naphthoxylactic acid (NLA), and naphthoxyacetic acid (NAA). All are metabolites of propranolol itself. […] The remainder show cross reactivity as below.

[2] = test system: Antibodies prepared from BgG conjugate according to Example 4; assay: as above; type: binding; conditions: Lot 2153; 100ng/ml propranolol standard
Description: as §1, §2, §3, §4, §5, §6, §7, §8

Row | SMILES | CROSS-REACTIVITY, expressed as the concentration necessary to elevate the signal of a 100ng/ml standard solution by 30% ([1]; Lot 2215) [ng/mL] | CROSS-REACTIVITY, expressed as the concentration necessary to elevate the signal of a 100ng/ml standard solution by 30% ([1]; Lot 2216) [ng/mL] | CROSS-REACTIVITY, expressed as the concentration necessary to elevate the signal of a 100ng/ml standard solution by 30% [2] [ng/mL]
1 | NCC(O)COc1cccc2ccccc12 (stereo not drawn) [DIPP, N-desisopropyl-propranolol] | 22 | 200 | 8
2 | CC(C)NCC(O)COc1ccc(O)c2ccccc12 (stereo not drawn) [Example 4POH, 4-hydroxypropranolol] | >1000 | >1000 | 190
3 | OCC(O)COc1cccc2ccccc12 (stereo not drawn) [PG, propranolol glycol] | 230 | 400 | 84

Source: patent EP0045334A1, “Propranolol antigen conjugates and antibodies and method of using them” (SYVA COMPANY, priority 1980, dated 1982)
